{
  "source": "patent US20200239530A1",
  "about": "“COMPOUNDS AND METHODS OF MODULATING PROTEIN DEGRADATION” (Vividion Therapeutics, Inc., priority 2017, published 2020)",
  "type_in_all_cases": "binding",
  "key": {"[1]": {"biological_target": "T1, cysteine residue illustrated in Table 1A or Table 2A (Homo sapiens, UniProt O95628)", "T1 construct": "endogenous in cells", "T1 sequence (O95628 1-575)": "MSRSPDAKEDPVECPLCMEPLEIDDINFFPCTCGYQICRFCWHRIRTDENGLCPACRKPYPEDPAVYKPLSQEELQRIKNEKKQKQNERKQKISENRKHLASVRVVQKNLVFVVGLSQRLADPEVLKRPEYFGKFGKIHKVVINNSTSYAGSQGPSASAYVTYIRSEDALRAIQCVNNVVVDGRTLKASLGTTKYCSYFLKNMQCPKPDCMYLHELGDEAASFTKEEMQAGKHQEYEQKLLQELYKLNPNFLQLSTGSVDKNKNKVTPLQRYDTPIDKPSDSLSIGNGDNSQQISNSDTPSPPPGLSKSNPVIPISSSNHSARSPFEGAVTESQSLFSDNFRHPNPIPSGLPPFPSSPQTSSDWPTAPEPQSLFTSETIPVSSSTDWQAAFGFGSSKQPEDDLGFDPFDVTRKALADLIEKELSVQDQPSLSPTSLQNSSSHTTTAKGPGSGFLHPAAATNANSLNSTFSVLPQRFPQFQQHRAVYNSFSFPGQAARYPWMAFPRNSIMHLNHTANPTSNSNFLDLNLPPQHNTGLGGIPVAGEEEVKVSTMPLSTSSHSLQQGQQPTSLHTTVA", "assay": "Competitive cysteine profiling of cell lysate with desthiobiotin iodoacetamide probe (96-well sample prep)", "conditions": "UniProt O95628; 100 uM", "method": "(§1) In some embodiments, the solution sample (e.g., cell sample, cell lysate sample, or comprising isolated proteins) is incubated with a compound of Formula (I) for analysis of protein-probe interactions. In some instances, the solution sample (e.g., cell sample, cell lysate sample, or comprising isolated proteins) is further incubated in the presence of an additional compound probe prior to addition of the compound of Formula (I). […] In such instances, the solution sample is incubated with a probe and a ligand for competitive protein profiling analysis.\n(§2) The following 96-well sample prep protocol was used for sample preparation.\n(§3) Cells were resuspended in cold PBS on ice and sonicated with a probe sonicator to achieve lysis. 200 μL of lysate containing 5 mg/ml proteome was treated with 2 μL of 100× compound stock in a 2-mL deep-well plate. The treated lysate was subsequently incubate at 25° C. for 1 hr with shaking at 600 rpm. The treated lysate was further incubated with 2 μL of 10 mM desthiobiotin iodoacetamide probe at 25° C. for 1 hr with shaking at 600 rpm. Next, the lysate was further treat with 20 μL of solution of PBS containing 11 mM MgSO4 and 2.5% Turbonuclease stock and incubated at 25° C. for 20 minutes with shaking at 600 rpm. 1.7 mL ice-cold acetone was added to each well and incubated at −20° C. for 2 hr, followed by max speed (4200 rpm) spin for 45 min. Acetone was then decanted and the plates were blotted to remove acetone. The plates were then dried in open air for 20 minutes. After drying, the plates were then covered with foil seal and stored at −80° C. overnight.\n(§4) The next day, samples were re-suspended in 90 μL of solution of 9M urea, 50 mM ammonium bicarbonate and 10 mM DTT by incubating at 65C for 20 min with shaking at 1500 rpm. Next, samples were cooled to 37° C. and then 10 μL of 500 mM iodoacetamide solution (92.48 mg/ml) was added. The samples were then incubated at 37° C. for 30 min with shaking at 600 rpm.\n(§5) ZEBA desalting plates were equilibrated 4 times using 250 μL of 2M urea, 50 mM ammonium bicarbonate solution followed by centrifugation at 1500 rpm for 2 minutes. After equilibration was complete, samples were applied to ZEBA desalting plate and spin at 1500 rpm for 2 min on top of 1 mL 96-well deep-well collection plate to buffer exchange samples. 4 μL of solution containing 25 mM CaCl2 and 0.25 mg/mL trypsin was added to the plate and the plate was then incubated at 37° C. for 2 hrs with shaking at 600 rpm. 300 μL of solution containing 5% high-capacity streptavidin agarose slurry in 25 mM Tris-HCl pH 7.5, 150 mM NaCl, and 0.1% NP-40 then added. The plate was incubated at 25° C. for 2 hrs with shaking at 600 rpm. Samples were transferred to 25 μm filter plate and spin at 1000 rpm for 2 min. Samples were then washed 3 times with 0.75 mL of wash buffer (25 mM Tris-HCl pH 7.5, 150 mM NaCl, and 0.1% NP-40) followed by washing 3 times with 0.75 mL PBS, and then 4 times with 0.75 mL water. After the washing step, samples were eluted into polypropylene 96-well plate by addition of 250 µL of 50% MeCN/water, 0.1% formic acid and allowed to gravity drip for 10 min, followed by centrifugation at 1000 rpm for 2 min. Speedvac was used to dry the plates at about 45° C. for […]. Then the plates were covered with foil seal and stored at −20° C.\n(§6) Samples were resuspended by addition of 20 μl of 12.5% ACN, 0.1% formic acid solution, covered with foil seal, and incubated at 42° C. for 10 minutes with shaking at 600 rpm. Then add 30 μL of 0.1% formic acid solution was added and the plate was covered and incubated at 42° C. for 10 minutes with shaking at 600 rpm. Seal plate was then sealed with a 96-well silicon mat for analysis."}, "[2]": {"biological_target": "T2, cysteine residue illustrated in Table 1A or Table 2A (Homo sapiens, UniProt P0C7V8)", "T2 construct": "Cells were resuspended in cold PBS on ice and sonicated with a probe sonicator to achieve lysis; endogenous in cells", "T2 sequence (P0C7V8 whole entry)": "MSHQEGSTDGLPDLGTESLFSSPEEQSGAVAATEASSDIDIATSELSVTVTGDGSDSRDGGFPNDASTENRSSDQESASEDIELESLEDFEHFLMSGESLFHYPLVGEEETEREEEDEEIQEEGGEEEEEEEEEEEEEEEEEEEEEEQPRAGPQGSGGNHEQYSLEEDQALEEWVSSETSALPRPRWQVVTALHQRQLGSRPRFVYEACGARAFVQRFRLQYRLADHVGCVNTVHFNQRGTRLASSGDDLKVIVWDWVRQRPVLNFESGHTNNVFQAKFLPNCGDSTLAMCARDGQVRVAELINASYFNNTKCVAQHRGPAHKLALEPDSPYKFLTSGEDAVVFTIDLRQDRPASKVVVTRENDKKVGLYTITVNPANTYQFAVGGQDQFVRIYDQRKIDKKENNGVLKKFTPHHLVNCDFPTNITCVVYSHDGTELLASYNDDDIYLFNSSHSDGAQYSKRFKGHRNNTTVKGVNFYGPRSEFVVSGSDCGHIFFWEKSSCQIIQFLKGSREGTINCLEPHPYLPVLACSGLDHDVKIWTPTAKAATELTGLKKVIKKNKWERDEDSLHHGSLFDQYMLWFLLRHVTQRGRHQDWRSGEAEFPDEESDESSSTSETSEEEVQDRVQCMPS", "assay": "Competitive cysteine profiling of cell lysate with desthiobiotin iodoacetamide probe (96-well sample prep)", "conditions": "UniProt P0C7V8; 500 uM", "method": "as §1, §2, §3, §4, §5, §6"}, "[3]": {"biological_target": "T3, cysteine residue illustrated in Table 1A or Table 2A (Homo sapiens, UniProt Q5H9S7)", "T3 construct": "Cells were resuspended in cold PBS on ice and sonicated with a probe sonicator to achieve lysis; endogenous in cells", "T3 sequence (Q5H9S7 1-520)": "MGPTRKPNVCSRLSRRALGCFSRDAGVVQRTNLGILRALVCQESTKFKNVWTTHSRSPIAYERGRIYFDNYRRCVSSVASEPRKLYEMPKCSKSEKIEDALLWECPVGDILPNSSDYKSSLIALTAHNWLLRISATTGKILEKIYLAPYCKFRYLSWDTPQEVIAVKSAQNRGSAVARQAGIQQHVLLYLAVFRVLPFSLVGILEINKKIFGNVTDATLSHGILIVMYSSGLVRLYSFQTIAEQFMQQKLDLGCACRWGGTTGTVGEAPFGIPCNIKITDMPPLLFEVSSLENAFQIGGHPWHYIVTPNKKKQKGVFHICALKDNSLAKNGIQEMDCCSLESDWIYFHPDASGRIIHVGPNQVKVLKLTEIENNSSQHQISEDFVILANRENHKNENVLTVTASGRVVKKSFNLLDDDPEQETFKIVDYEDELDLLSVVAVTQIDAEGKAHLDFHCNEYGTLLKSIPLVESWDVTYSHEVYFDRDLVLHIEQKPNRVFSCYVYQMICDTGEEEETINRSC", "assay": "Competitive cysteine profiling of cell lysate with desthiobiotin iodoacetamide probe (96-well sample prep)", "conditions": "UniProt Q5H9S7; 100 uM", "method": "as §1, §2, §3, §4, §5, §6"}, "[4]": {"biological_target": "ANAPC16 Anaphase-promoting complex subunit 16 (Homo sapiens, UniProt Q96DE5)", "assay": "Cysteine liganding, probe competition", "set-up": "endogenous in cells", "method": "as §3, §4, §5, §6"}},
  "note": "Where two headings read alike, the source gives them in different places.",
  "data": [
    {"smiles": "COc1ccc2c(c1)CCCN2C(=O)CCl", "note": "[KB02]", "values": [
      {"measurement": "KB02_100 uM_percent_inhibition", "setting": "[1]", "value": 6, "unit": "%"},
      {"measurement": "KB02_500 uM_percent_inhibition", "setting": "[2]", "value": 55, "unit": "%"},
      {"measurement": "KB02_100 uM_percent_inhibition", "setting": "[3]", "value": 69, "unit": "%"},
      {"measurement": "inhibition at 100 µM", "setting": "[4]; 100 uM, UniProt Q96DE5, read-out: KB02_100 uM_percent_inhibition", "value": 46, "unit": "%"},
      {"measurement": "inhibition at 500 µM", "setting": "[4]; 500 uM, UniProt Q96DE5, read-out: KB02_500 uM_percent_inhibition", "value": 85, "unit": "%"},
      {"measurement": "Liganded", "setting": "[4]; ANAPC16 Res# 55, uniprot Q96DE5", "value": "YES"}
    ]},
    {"smiles": "C=CC(=O)N(c1ccccc1)c1ccc(Br)cc1", "note": "[KB05]", "values": [
      {"measurement": "KB05_100 uM_percent_inhibition", "setting": "[1]", "value": 94, "unit": "%"},
      {"measurement": "KB05_500 uM_percent_inhibition", "setting": "[2]", "value": 63, "unit": "%"},
      {"measurement": "KB05_100 uM_percent_inhibition", "setting": "[3]", "value": 54, "unit": "%"},
      {"measurement": "inhibition at 100 µM", "setting": "[4]; 100 uM, UniProt Q96DE5, read-out: KB05_100 uM_percent_inhibition", "value": 37, "unit": "%"},
      {"measurement": "inhibition at 500 µM", "setting": "[4]; 500 uM, UniProt Q96DE5, read-out: KB05_500 uM_percent_inhibition", "value": 83, "unit": "%"}
    ]},
    {"smiles": "O=C(CCl)Nc1cc(C(F)(F)F)cc(C(F)(F)F)c1", "note": "[KBO3]", "values": [
      {"measurement": "KB03_100 uM_percent_inhibition", "setting": "[1]", "value": 13, "unit": "%"},
      {"measurement": "KB03_500 uM_percent_inhibition", "setting": "[2]", "value": 41, "unit": "%"},
      {"measurement": "KB03_100 uM_percent_inhibition", "setting": "[3]", "value": 39, "unit": "%"},
      {"measurement": "KB03_100 uM_percent_inhibition", "setting": "[4]; 100 uM, UniProt Q96DE5", "value": 52, "unit": "%"},
      {"measurement": "KB03_500 uM_percent_inhibition", "setting": "[4]; 500 uM, UniProt Q96DE5", "value": 82, "unit": "%"},
      {"measurement": "500 Max", "setting": "[4]; uniprot Q96DE5", "value": 36.5},
      {"measurement": "100 Max", "setting": "[4]; uniprot Q96DE5, unit assumed", "value": 20.4, "unit": "%"}
    ]}
  ]
}
